Patent publication US6855512B2, “Methods for identifying inhibitors of cytochrome P450RAI” (Allergan, Inc., priority 2000, dated 2005)

Tests used:
RARα [1] = molecular target: T1, RARα (Homo sapiens, UniProt P10276); assay: chimeric receptor transactivation assay, RARα; type: cell-based; details: EC50 line of EC50/(EFFICACY)/Kd, read-out: RAR α EC50
T1 sequence (P10276 183-417 limits assumed): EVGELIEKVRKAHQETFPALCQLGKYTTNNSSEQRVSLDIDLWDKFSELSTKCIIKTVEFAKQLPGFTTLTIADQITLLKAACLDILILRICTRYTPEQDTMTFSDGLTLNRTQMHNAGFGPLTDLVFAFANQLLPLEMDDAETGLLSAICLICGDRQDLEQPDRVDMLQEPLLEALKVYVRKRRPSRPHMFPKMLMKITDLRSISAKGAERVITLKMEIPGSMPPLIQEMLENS
Text: (§1) Assays described below measure the ability of a compound to bind to, and/or activate various retinoid receptor subtypes. When in these assays a compound binds to a given receptor subtype and activates the transcription of a reporter gene through that subtype, then the compound is considered an agonist of that receptor subtype. […] In the below described assays the ability of the compounds to bind to RARα, RARβ, RARγ, RXRα, RXRβ and RXRγ receptors, and the ability or inability of the compounds to activate transcription of a reporter gene through these receptor subtypes can be tested.
(§2) The results obtained in this assay are expressed in EC50 numbers, as they are also in the chimeric receptor transactivation assay. The results of ligand binding assay are expressed in Kd numbers.

RARβ [2] = molecular target: T2, RARβ (Homo sapiens, UniProt P10826); assay: chimeric receptor transactivation assay, RARβ; type: cell-based; details: EC50 line of EC50/(EFFICACY)/Kd, read-out: RAR β EC50
T2 sequence (P10826 183-417 limits assumed): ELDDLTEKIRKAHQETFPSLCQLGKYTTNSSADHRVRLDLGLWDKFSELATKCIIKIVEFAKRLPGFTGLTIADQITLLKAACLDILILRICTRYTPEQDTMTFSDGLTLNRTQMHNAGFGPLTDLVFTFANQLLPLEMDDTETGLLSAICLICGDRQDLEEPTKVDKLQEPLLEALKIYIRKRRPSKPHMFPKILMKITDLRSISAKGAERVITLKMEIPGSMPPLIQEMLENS
Text: as §1, §2

RARγ [3] = molecular target: T3, RARγ (Homo sapiens, UniProt P13631); assay: chimeric receptor transactivation assay, RARγ; type: cell-based; details: EC50 line of EC50/(EFFICACY)/Kd, read-out: RAR γ EC50
T3 sequence (P13631 185-454 limits assumed): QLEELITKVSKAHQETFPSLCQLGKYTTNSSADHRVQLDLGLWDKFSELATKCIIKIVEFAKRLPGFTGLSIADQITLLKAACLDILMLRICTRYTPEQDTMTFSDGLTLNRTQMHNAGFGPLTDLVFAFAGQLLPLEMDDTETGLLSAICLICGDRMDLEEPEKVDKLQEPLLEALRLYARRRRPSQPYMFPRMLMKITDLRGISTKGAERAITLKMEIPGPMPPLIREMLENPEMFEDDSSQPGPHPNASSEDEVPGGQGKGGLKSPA
Text: as §1, §2

RARα [4] = molecular target: T4, RARα (Homo sapiens, UniProt P10276); assay: ligand binding assay, RARα; details: Kd line of EC50/(EFFICACY)/Kd, K = thousand, read-out: RAR α Kd
T4 sequence (P10276 1-462): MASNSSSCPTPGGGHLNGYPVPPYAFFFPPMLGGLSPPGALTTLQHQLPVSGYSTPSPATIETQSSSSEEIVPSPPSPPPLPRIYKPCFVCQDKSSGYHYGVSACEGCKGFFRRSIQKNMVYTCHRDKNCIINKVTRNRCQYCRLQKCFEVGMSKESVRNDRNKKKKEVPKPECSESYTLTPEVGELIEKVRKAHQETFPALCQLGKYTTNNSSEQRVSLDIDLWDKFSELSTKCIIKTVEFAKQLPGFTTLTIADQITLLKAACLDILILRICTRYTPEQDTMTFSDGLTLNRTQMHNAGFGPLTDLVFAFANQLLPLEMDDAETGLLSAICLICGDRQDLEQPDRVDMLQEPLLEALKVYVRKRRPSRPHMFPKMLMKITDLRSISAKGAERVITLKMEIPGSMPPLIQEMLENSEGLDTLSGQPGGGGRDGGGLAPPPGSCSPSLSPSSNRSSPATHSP
Text: as §1, §2

RARβ [5] = molecular target: T5, RARβ (Homo sapiens, UniProt P10826); assay: ligand binding assay, RARβ; details: Kd line of EC50/(EFFICACY)/Kd, K = thousand, read-out: RAR β Kd
T5 sequence (P10826 1-455): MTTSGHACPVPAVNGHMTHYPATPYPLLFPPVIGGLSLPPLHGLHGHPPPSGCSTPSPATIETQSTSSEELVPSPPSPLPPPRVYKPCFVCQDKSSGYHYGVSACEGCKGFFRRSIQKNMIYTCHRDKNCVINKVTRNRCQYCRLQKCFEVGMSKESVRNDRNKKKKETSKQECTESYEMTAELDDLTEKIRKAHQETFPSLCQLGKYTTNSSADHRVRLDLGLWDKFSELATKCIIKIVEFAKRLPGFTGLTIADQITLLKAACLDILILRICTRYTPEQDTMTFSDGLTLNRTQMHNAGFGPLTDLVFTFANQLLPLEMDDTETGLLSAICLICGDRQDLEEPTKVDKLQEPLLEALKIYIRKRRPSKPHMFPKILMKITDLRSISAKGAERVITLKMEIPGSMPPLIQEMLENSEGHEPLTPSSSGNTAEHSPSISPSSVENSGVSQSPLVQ
Text: as §1, §2

RARγ [6] = molecular target: T6, RARγ (Homo sapiens, UniProt P13631); assay: ligand binding assay, RARγ; details: Kd line of EC50/(EFFICACY)/Kd, K = thousand, read-out: RAR γ Kd
T6 sequence (P13631 1-454): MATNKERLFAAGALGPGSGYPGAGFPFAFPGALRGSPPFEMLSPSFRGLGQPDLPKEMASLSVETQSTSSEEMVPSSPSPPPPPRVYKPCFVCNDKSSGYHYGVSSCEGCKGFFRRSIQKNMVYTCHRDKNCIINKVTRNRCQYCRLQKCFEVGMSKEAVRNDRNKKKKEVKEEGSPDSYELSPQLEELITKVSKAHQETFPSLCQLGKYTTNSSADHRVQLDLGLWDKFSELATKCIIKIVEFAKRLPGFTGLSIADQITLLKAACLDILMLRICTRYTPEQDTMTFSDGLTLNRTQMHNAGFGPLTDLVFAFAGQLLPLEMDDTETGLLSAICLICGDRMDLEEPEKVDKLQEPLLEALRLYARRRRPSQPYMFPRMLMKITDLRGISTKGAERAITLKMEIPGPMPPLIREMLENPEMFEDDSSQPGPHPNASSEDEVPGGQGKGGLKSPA
Text: as §1, §2

EC50 (RARα [1]): 0.089 µM | EC50 (RARβ [2]): 0.018 µM | EC50 (RARγ [3]): 0.015 µM | Kd (RARα [4]): 10 µM | Kd (RARβ [5]): 2.89 µM | Kd (RARγ [6]): 10 µM
SMILES: CC1(C)CCSc2ccc(C#Cc3ccc(CCC(=O)O)cc3)cc21 [Compound 210]
